In one series the test system is Caenorhabditis elegans. Briefly: Life duration of Caenorhabditis elegans on NGM plates. Type of series: in vivo. On the procedure:
ADAM QD/T, TiO2 aqueous nanodispersion used for researches on the animals, was sterile nanodispersion, of pharmaceutical class, in concentration 0.6 mg/ml. • 2. […] SBECD, Sulfobutylated beta-cyclodextrin sodium salt, Budapest, Hungary DEXOLVE® pharma grade (DS 6.5), powder in concentration 0.3 mg/ml. Protocol of researches and step-by-step methodology: • embryos were isolated (synchronization) • larvae of identical phase (L4) were placed on the standard NGM (nematode growth medium) […] plates in the Petri dishes. • all the animals were in the age from first up to ninth day of life and lived in a medium containing the above-listed components, after ninth day they were placed in standard […] without other additions as FUDR. • deaths of the animals were constantly registered as a time function • the curves of life duration were created on the basis of read indications. Composition of NGM plates (all the chemical compounds and reagents of analytical class); NaCl, agar, peptone, 5 mg/ml cholesterol in ethanol, non-autoclaved, 1 M K3PO4 buffer pH 6.0 (108.3 g KH2PO4, 35.6 g K2HPO4, H2O for 1 liter), 1M MgSO4, Petri dishes, peristaltic pump. The results present average of three parallel, independent definitions, research cycles of C. elegans.

Series [1] relates to HT-1080 human fibrosarcoma cell line. The series is described as follows: Cytotoxicity on the cells culture HT1080. Particulars: TiO2 or SiO2 600 mcg/ml, cyclodextrin 5000 mcg/ml, Doxorubicin 200 mcg/ml. Type of series: cell-based.
Experimental: (§1) In these studies cells (5×10^4) were seeded in 6-well plates and cultured in RPMI-1640 medium containing 10% fetal bovine serum. The cultures were incubated for 2 hours in CO2 thermostate at 37° C. After the preincubation period the medium was removed, the cells were washed with physiological saline (2×1 ml 0.9% NaCl) and exposed to testing samples applying various concentrations for 60 min. After removing the test compounds fresh RPMI 1640 medium containing 10% FBS was added and the cultures were incubated for further 24 hours at 37° C. in humidified thermostate (5% CO2). At the end of the posttreatment period the medium as supernatants of the cultures, containing released cells was removed and saved for cell counting.
For another series, the system named is human tumour cell lines. Briefly: Cytotoxicity and cytomorphology of test substances, conclusions (cell line not given). Particulars: Doxorubicin 0.2 mg/ml; HPBCD 5 mg/ml.

“Also recorded” adds a separate entry of the source.

Experimental for human tumour cell lines: • A. ZR-75.1 Her-2 expressing human breast adenocarcinoma cell line. • B. HT-1080: H-ras expressing, producing matrix metalloprotease 2,9 human fibrosarcoma cell line, • C. Daoy Medulloblastoma cell line
as §1

As for “Sulfobutylated beta-cyclodextrin sodium salt [SBECD]”, the “Number of living C. elegans (%)” value in the series with Caenorhabditis elegans (life duration 10 days) came out at 90%; in the series on Caenorhabditis elegans (life duration 13 days) it was 41%; in the series on Caenorhabditis elegans (life duration 14 days), 20%; with Caenorhabditis elegans (life duration 15 days), 7%; with Caenorhabditis elegans (life duration 18 days), 0%.

Regarding `COc1cccc2c1C(=O)c1c(O)c3c(c(O)c1C2=O)C[C@@](O)(C(=O)CO)C[C@@H]3O[C@H]1C[C@H](N)[C@H](O)[C@H](C)O1` [Doxorubicin], the Cytotoxicity result in series [1] was “evident cytotoxicity; also recorded: significant cytotoxicity”; with human tumour cell lines it was “moderate cytotoxicity”.
